Experimental data: patent publication US4205170A, “Propionic acid derivatives” (priority 1976, dated 1980)
Like-named read-outs stand apart in the source and are kept apart here.

Tested on: edema in the hind paws (carrageenan)
Assay: carrageenan-induced hind paw edema, oral administration
Assay type: in vivo, male Wistar rats
Details: Rattus norvegicus
Experimental: That is, male Wistar rats weighing about 100 g, one group consisting of 5 to 7 animals, were given orally the compounds according to the present invention and then edema was induced in the hind paws by subcutaneous injections of 0.1 ml of 1% carrageenan 1 hour after the administration of the test compounds, and the volumes of the hind paws were measured by a volume differential meter.

[1] = 10 mg/kg orally, 1 hr, read-out: Inhibition (%) 1 hr
[2] = 10 mg/kg orally, 2 hr, read-out: Inhibition (%) 2 hr
[3] = 10 mg/kg orally, 3 hr, read-out: Inhibition (%) 3 hr
[4] = 10 mg/kg orally, 4 hr, read-out: Inhibition (%) 4 hr
[5] = 10 mg/kg orally, 5 hr, read-out: Inhibition (%) 5 hr
[6] = 10 mg/kg orally, 6 hr, read-out: Inhibition (%) 6 hr
[7] = 1 h, read-out: Inhibition (%) 1 hr
[8] = 2 h, read-out: Inhibition (%) 2 hr
[9] = 3 h, read-out: Inhibition (%) 3 hr
[10] = 4 h, read-out: Inhibition (%) 4 hr
[11] = 5 h, read-out: Inhibition (%) 5 hr
[12] = 6 h, read-out: Inhibition (%) 6 hr

SMILES	inhibition in vivo at 10 mg/kg [1] [%]	inhibition in vivo at 10 mg/kg [2] [%]	inhibition in vivo at 10 mg/kg [3] [%]	inhibition in vivo at 10 mg/kg [4] [%]	inhibition in vivo at 10 mg/kg [5] [%]	inhibition in vivo at 10 mg/kg [6] [%]	inhibition in vivo at 1 mg/kg [7] [%]	inhibition in vivo at 10 mg/kg [7] [%]	inhibition in vivo at 1 mg/kg [8] [%]	inhibition in vivo at 10 mg/kg [8] [%]	inhibition in vivo at 1 mg/kg [9] [%]	inhibition in vivo at 10 mg/kg [9] [%]	inhibition in vivo at 1 mg/kg [10] [%]	inhibition in vivo at 10 mg/kg [10] [%]	inhibition in vivo at 1 mg/kg [11] [%]	inhibition in vivo at 10 mg/kg [11] [%]	inhibition in vivo at 1 mg/kg [12] [%]	inhibition in vivo at 10 mg/kg [12] [%]
CC(C(N)=O)c1ccc2c(c1)C(=O)Cc1ccccc1S2 (stereo not drawn) [Compound 1, 2-(10,11-dihydro-11-oxodibenzo[b,f]thiepin-2-yl)-propionamide]	47.1	66.7	70.5	73.6	68	66												
CC(C(=O)O)c1ccc2c(c1)C(=O)Cc1ccccc1S2 (stereo not drawn) [Compound 2, 2-(10,11-dihydro-11-oxodibenzo[b,f]thiepin-2-yl)-propionic acid]							53.8	55	57.3	76.3	70.9	78	69.6	78.5	68.7	74.8	65.6	70
CCOC(=O)C(C)c1ccc2c(c1)C(=O)Cc1ccccc1S2 (stereo not drawn) [Compound 3, Ethyl 2-(10,11-dihydro-11-oxodibenzo[b,f]thiepin-2-yl)-propionate]	62.3	72	79.9	78.2	74.5	64.5												
CC(C(=O)O)c1ccc2c(c1)CCc1ccccc1S2 (stereo not drawn) [Compound 4, 2-(10,11-dihydrodibenzo[b,f]thiepin-2-yl)-propionic acid]	47.2	58.8	54.6	48.3	41	35												
CCOC(=O)C(C)c1ccc2c(c1)CCc1ccccc1S2 (stereo not drawn) [Compound 5, Ethyl 2-(10,11-dihydrodibenzo[b,f]thiepin-2-yl)-propionate]	56.6	68	67.4	52.2	38.7	29.3												
CC(C(=O)O)c1ccc2c(c1)Sc1ccccc1CC2=O (stereo not drawn) [Compound 6, 2-(10,11-dihydro-11-oxodibenzo[b,f]thiepin-3-yl)-propionic acid]	65.9	41.5	31.8	26.1	22.3	20.5												
CCOC(=O)C(C)c1ccc2c(c1)Sc1ccccc1CC2=O (stereo not drawn) [Compound 7, Ethyl 2-(10,11-dihydro-11-oxodibenzo[b,f]thiepin-3-yl)-propionate]	58.7	39.6	31.2	25.9	22.3	18.8												
CCOC(=O)C(C)c1ccc2c(c1)Sc1ccccc1CC2 (stereo not drawn) [Compound 8, Ethyl 2-(10,11-dihydrodibenzo[b,f]thiepin-3-yl)-propionate]	43.2	37.8	26.9	20.1	15.8	15.1												
CC(C(=O)O)c1ccc2c(c1)Sc1ccccc1CC2 (stereo not drawn) [Compound 9, 2-(10,11-dihydrodibenzo[b,f]thiepin-3-yl)-propionic acid]	52.1	41	27.5	21.3	16.6	16.3												
CC(C(N)=O)c1ccc2c(c1)C(=O)Cc1ccccc1O2 (stereo not drawn) [Compound 10, 2-(10,11-dihydro-11-oxodibenzo[b,f]oxepin-2-yl)-propionamide]	71.2	69.3	76.3	76.7	56.4	34.4												
CCOC(=O)C(C)c1ccc2c(c1)C(=O)Cc1ccccc1O2 (stereo not drawn) [Compound 11, Ethyl 2-(10,11-dihydro-11-oxodibenzo[b,f]oxepin-2-yl)-propionate]	21.2	56.8	64.9	70	62.8	52.6												
